Experimental findings from patent US11795204B2 (Zealand Pharma A/S, priority 2012, dated 2023) are described below.

A short description of one data set: physchem. The following applies: pH 7.5. On the procedure:
A stock solution of the test peptide (2 mg/ml; determined by measurement of the absorption of the solution at 280 nm, and using the theoretical extension coefficient based on the content of tryptophan and tyrosine in the peptide) in demineralized water adjusted to pH 2.5 with HCl was prepared, and aliquots were diluted 1:1 in 100 mM acetate buffer (pH 4.0) and 100 mM phosphate buffer (pH 7.5), respectively, and loaded in a standard flat-bottom, non-sterile 96-well UV Microplate. The absorbance of samples (single samples, n=1) at 280 and 325 nm was measured in an absorbance-based plate reader, which was preheated to ambient temperature.

A further data set deals with T1, human Glucagon-R (Homo sapiens, UniProt P47871).
T1 construct: expressed in transfected cells
T1 sequence (P47871 26-477): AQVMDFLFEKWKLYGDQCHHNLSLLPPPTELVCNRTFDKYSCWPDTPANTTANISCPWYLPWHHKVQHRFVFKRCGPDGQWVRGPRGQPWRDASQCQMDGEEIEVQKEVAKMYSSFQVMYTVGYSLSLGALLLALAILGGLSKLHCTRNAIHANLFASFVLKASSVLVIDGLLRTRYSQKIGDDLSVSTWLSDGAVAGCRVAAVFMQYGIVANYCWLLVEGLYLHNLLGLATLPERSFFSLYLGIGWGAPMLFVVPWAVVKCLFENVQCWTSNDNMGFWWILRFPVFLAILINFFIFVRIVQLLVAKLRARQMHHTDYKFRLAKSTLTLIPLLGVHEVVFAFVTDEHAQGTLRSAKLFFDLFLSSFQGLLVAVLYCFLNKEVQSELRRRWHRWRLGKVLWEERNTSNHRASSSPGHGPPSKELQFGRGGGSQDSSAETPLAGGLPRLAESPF
Description: Glucagon receptor assay (cAMP induction, AlphaScreen). The class given is cell-based. The following applies: HEK293 cells expressing the human Glucagon-R, 15 min at 37° C., read-out: GCG-R EC50 in vitro. On the procedure: The 5′-end primers additionally encoded a near-Kozak consensus sequence to ensure efficient translation. […] 48 hr after transfection, cells were seeded for limited dilution cloning and selected with 1 mg/ml G418 in the culture medium.
On the day of analysis, growth medium was removed and the cells were washed once with […] of the included Assay buffer with IBMX. Cells were incubated in […] Assay buffer/IBMX containing increasing concentrations of test peptides for 15 min at 37° C. Then the peptides/Assay buffer was removed and cells were lysed by addition of […] Lysis buffer pr. well and incubation for at least 10 min at room temperature. From each well […] cell lysate was transferred to a 384-well OptiPlate and mixed with Donor and Acceptor beads and incubated for 1 h at room temperature. The cAMP content was measured on an Envision plate reader.
A general note: Alpha assays give light when donor and acceptor beads are brought close together.

Data set [1] in a line: Chemical stability assessment (RP-HPLC normalized purity). The class given is physicochemical. The following applies: for Normalized purity pH 4.0 after 14 days: 1 mg/ml in 50 mM acetate buffer pH 4.0, 40° C.; for Normalized purity pH 7.5 after 14 days: 1 mg/ml in 50 mM phosphate buffer pH 7.5, 40° C. On the procedure: Samples were placed in glass vials and incubated at 40° C. The samples were analysed by reverse-phase HPLC on a C18 column with gradient elution using an acetonitrile/trifluoroacetic acid/water eluent system. The area-percentage (area-%) of the main peak after incubation time T=t (relative to time T=0) was detected by UV spectrometry at 220 nm. The purity was first determined as follows: Purity(area-%)=(area of main peak/total area of all peaks)×100. […] Normalized purity values in Table 2 were determined after 14 days of incubation.

Square brackets hold non-standard residues; d marks the D form. Peptide text beside a SMILES is read from it. Dab = NCC[C@H](N)C(=O)O; Aib = CC(C)(N)C(=O)O

The solubility is the dissolved amount per volume that the medium holds. Read a high solubility as a readily soluble substance. As usually defined, the EC50 is the concentration that produces a half-maximal response. With `CC(C)C[C@H](NC(=O)[C@H](Cc1c[nH]c2ccccc12)NC(=O)[C@H](CCCCN)NC(=O)[C@@H](NC(=O)[C@H](Cc1ccccc1)NC(=O)[C@H](CC(=O)O)NC(=O)[C@H](CCC(=O)O)NC(=O)[C@H](C)NC(=O)[C@H](CCCNC(=N)N)NC(=O)[C@H](C)NC(=O)C(C)(C)NC(=O)[C@H](CC(=O)O)NC(=O)[C@H](CC(C)C)NC(=O)[C@H](Cc1ccc(O)cc1)NC(=O)[C@H](CCCCN)NC(=O)[C@H](CO)NC(=O)[C@H](Cc1ccc(O)cc1)NC(=O)[C@H](CC(=O)O)NC(=O)[C@H](CO)NC(=O)[C@@H](NC(=O)[C@H](Cc1ccccc1)NC(=O)[C@@H](NC(=O)CNC(=O)[C@H](CCC(N)=O)NC(=O)[C@H](CO)NC(=O)[C@@H](N)Cc1c[nH]cn1)[C@@H](C)O)[C@@H](C)O)C(C)C)C(=O)N[C@@H](CCC(=O)O)C(=O)N[C@@H](CO)C(=O)N[C@H](C(=O)O)[C@@H](C)O` [Compound 12] (H-HSQGTFTSDYSKYLD[Aib]ARAEDFVKWLEST-OH), in “physchem”, the solubility is not below 1000 µg/mL. Besides, on human Glucagon-R, the concentration for a half-maximal effect (EC50) was 0.03 nM. Further, in data set [1], the “Normalized purity pH 4.0 after 14 days” value turned out to be 86.8% and the “Normalized purity pH 7.5 after 14 days” value turned out to be 90.8%.

Turning to `CC(=O)NCC[C@H](NC(=O)[C@H](CO)NC(=O)[C@@H](N)Cc1c[nH]cn1)C(=O)NCC(=O)N[C@H](C(=O)N[C@@H](Cc1ccccc1)C(=O)N[C@H](C(=O)N[C@@H](CO)C(=O)N[C@@H](CC(=O)O)C(=O)N[C@@H](Cc1ccc(O)cc1)C(=O)N[C@@H](CO)C(=O)N[C@@H](CCCCN)C(=O)N[C@@H](Cc1ccc(O)cc1)C(=O)N[C@@H](CC(C)C)C(=O)N[C@@H](CC(=O)O)C(=O)NC(C)(C)C(=O)N[C@@H](C)C(=O)N[C@@H](CCCNC(=N)N)C(=O)N[C@@H](C)C(=O)N[C@@H](CCC(=O)O)C(=O)N[C@@H](CO)C(=O)N[C@@H](Cc1ccccc1)C(=O)N[C@H](C(=O)N[C@@H](CCCCN)C(=O)N[C@@H](Cc1c[nH]c2ccccc12)C(=O)N[C@@H](CC(C)C)C(=O)N[C@@H](CCC(=O)O)C(=O)N[C@@H](CO)C(=O)N[C@H](C(N)=O)[C@@H](C)O)C(C)C)[C@@H](C)O)[C@@H](C)O` [Compound 24] (H-HS[Dab](Ac)GTFTSDYSKYLD[Aib]ARAESFVKWLEST-NH2), the solubility in “physchem” was not below 1000 µg/mL. Further, the EC50 at human Glucagon-R stood at 0.0078 nM. Besides, in data set [1], the “Normalized purity pH 4.0 after 14 days” value was found to be 92.8% and the “Normalized purity pH 7.5 after 14 days” value amounted to 94.4%.

Molecule `CC(C)C[C@H](NC(=O)[C@H](Cc1c[nH]c2ccccc12)NC(=O)[C@H](CCCCN)NC(=O)[C@@H](NC(=O)[C@H](Cc1ccccc1)NC(=O)[C@H](CO)NC(=O)[C@H](CCC(=O)O)NC(=O)[C@H](C)NC(=O)[C@H](CCCNC(=N)N)NC(=O)[C@H](C)NC(=O)C(C)(C)NC(=O)[C@H](CC(=O)O)NC(=O)[C@H](CC(C)C)NC(=O)[C@H](Cc1ccc(O)cc1)NC(=O)[C@H](CCCCN)NC(=O)[C@H](CO)NC(=O)[C@H](Cc1ccc(O)cc1)NC(=O)[C@H](CC(=O)O)NC(=O)[C@H](CO)NC(=O)[C@@H](NC(=O)[C@H](Cc1ccccc1)NC(=O)[C@@H](NC(=O)CNC(=O)[C@H](CCC(N)=O)NC(=O)[C@H](CO)NC(=O)[C@@H](N)Cc1c[nH]cn1)[C@@H](C)O)[C@@H](C)O)C(C)C)C(=O)N[C@@H](CCC(=O)O)C(=O)N[C@@H](CO)C(=O)N[C@H](C(N)=O)[C@@H](C)O` [Compound 31] (H-HSQGTFTSDYSKYLD[Aib]ARAESFVKWLEST-NH2) gave a solubility in “physchem” not below 1000 µg/mL. At human Glucagon-R, the EC50 amounted to 0.0072 nM. Besides, in data set [1], the “Normalized purity pH 4.0 after 14 days” value turned out to be 93.1% and the “Normalized purity pH 7.5 after 14 days” value is listed as 91.7%.

The molecule `CC(C)C[C@H](NC(=O)[C@H](Cc1c[nH]c2ccccc12)NC(=O)[C@H](CCC(=O)O)NC(=O)[C@@H](NC(=O)[C@H](Cc1ccccc1)NC(=O)[C@H](CO)NC(=O)[C@H](CCCCN)NC(=O)[C@H](C)NC(=O)[C@H](CCCNC(=N)N)NC(=O)[C@H](C)NC(=O)C(C)(C)NC(=O)[C@H](CC(=O)O)NC(=O)[C@H](CC(C)C)NC(=O)[C@H](Cc1ccc(O)cc1)NC(=O)[C@H](CCCCN)NC(=O)[C@H](CO)NC(=O)[C@H](Cc1ccc(O)cc1)NC(=O)[C@H](CC(=O)O)NC(=O)[C@H](CO)NC(=O)[C@@H](NC(=O)[C@H](Cc1ccccc1)NC(=O)[C@@H](NC(=O)CNC(=O)[C@H](CCC(N)=O)NC(=O)[C@H](CO)NC(=O)[C@@H](N)Cc1c[nH]cn1)[C@@H](C)O)[C@@H](C)O)C(C)C)C(=O)N[C@@H](CCC(=O)O)C(=O)N[C@@H](CCCCN)C(=O)N[C@H](C(=O)O)[C@@H](C)O` [Compound 29] (H-HSQGTFTSDYSKYLD[Aib]ARAKSFVEWLEKT-OH) registered a solubility in the data set “physchem” not below 1000 µg/mL. For the same molecule, at human Glucagon-R, the EC50 turned out to be 0.023 nM. For the same molecule, in data set [1], the “Normalized purity pH 4.0 after 14 days” value is 91% and the “Normalized purity pH 7.5 after 14 days” value came out at 91.6%.

Regarding `CC(=O)NCC[C@H](NC(=O)[C@H](CO)NC(=O)[C@@H](N)Cc1c[nH]cn1)C(=O)NCC(=O)N[C@H](C(=O)N[C@@H](Cc1ccccc1)C(=O)N[C@H](C(=O)N[C@@H](CO)C(=O)N[C@@H](CC(=O)O)C(=O)N[C@@H](Cc1ccc(O)cc1)C(=O)N[C@@H](CO)C(=O)N[C@@H](CCCCN)C(=O)N[C@@H](Cc1ccc(O)cc1)C(=O)N[C@@H](CC(C)C)C(=O)N[C@@H](CC(=O)O)C(=O)NC(C)(C)C(=O)N[C@@H](C)C(=O)N[C@@H](CCCNC(=N)N)C(=O)N[C@@H](C)C(=O)N[C@@H](CCC(=O)O)C(=O)N[C@@H](CO)C(=O)N[C@@H](Cc1ccccc1)C(=O)N[C@H](C(=O)N[C@@H](CCCCN)C(=O)N[C@@H](Cc1c[nH]c2ccccc12)C(=O)N[C@@H](CC(C)C)C(=O)N[C@@H](CCC(=O)O)C(=O)N[C@@H](CO)C(=O)N[C@H](C(=O)O)[C@@H](C)O)C(C)C)[C@@H](C)O)[C@@H](C)O` [Compound 32] (H-HS[Dab](Ac)GTFTSDYSKYLD[Aib]ARAESFVKWLEST-OH), the solubility in “physchem” is not below 1000 µg/mL. Moreover, the EC50 on human Glucagon-R is 0.0093 nM. Also, in data set [1], the “Normalized purity pH 4.0 after 14 days” value was found to be 91.2% and the “Normalized purity pH 7.5 after 14 days” value is on record as 96.3%.

On to “H-HSQGTFTSDYSKYLDEARAEDFVKWLEST-OH [Compound 14]”, for which, in “physchem”, the solubility was not below 1000 µg/mL. Moreover, the concentration for a half-maximal effect (EC50) on human Glucagon-R turned out to be 0.15 nM. For the same molecule, in data set [1], the “Normalized purity pH 4.0 after 14 days” value is given as 89.5% and the “Normalized purity pH 7.5 after 14 days” value turned out to be 92.4%.

In the case of “H-HSQGTFTSDYSKYLDSARAEDFVKWLES-OH [Compound 13]”, in the data set “physchem”, the solubility is not below 1000 µg/mL. Also, the EC50 at human Glucagon-R was determined as 0.07 nM. Also, in data set [1], the “Normalized purity pH 4.0 after 14 days” value is listed as 84.6% and the “Normalized purity pH 7.5 after 14 days” value is listed as 88.8%.

As to `CC(C)C[C@H](NC(=O)[C@H](Cc1c[nH]c2ccccc12)NC(=O)[C@H](CCC(=O)O)NC(=O)[C@@H](NC(=O)[C@H](Cc1ccccc1)NC(=O)[C@H](CCCCN)NC(=O)[C@H](CCC(=O)O)NC(=O)[C@H](C)NC(=O)[C@H](CCCNC(=N)N)NC(=O)[C@H](C)NC(=O)C(C)(C)NC(=O)[C@H](CC(=O)O)NC(=O)[C@H](CC(C)C)NC(=O)[C@H](Cc1ccc(O)cc1)NC(=O)[C@H](CCCCN)NC(=O)[C@H](CO)NC(=O)[C@H](Cc1ccc(O)cc1)NC(=O)[C@H](CC(=O)O)NC(=O)[C@H](CO)NC(=O)[C@@H](NC(=O)[C@H](Cc1ccccc1)NC(=O)[C@@H](NC(=O)CNC(=O)[C@H](CCC(N)=O)NC(=O)[C@H](CO)NC(=O)[C@@H](N)Cc1c[nH]cn1)[C@@H](C)O)[C@@H](C)O)C(C)C)C(=O)N[C@@H](CCC(=O)O)C(=O)N[C@@H](CO)C(=O)N[C@H](C(=O)O)[C@@H](C)O` [Compound 34] (H-HSQGTFTSDYSKYLD[Aib]ARAEKFVEWLEST-OH), the solubility in the data set “physchem” was not below 1000 µg/mL. Moreover, at human Glucagon-R, the EC50 came to 0.028 nM.

Turning to `CC(C)C[C@H](NC(=O)[C@H](Cc1c[nH]c2ccccc12)NC(=O)[C@H](CCCCN)NC(=O)[C@@H](NC(=O)[C@H](Cc1ccccc1)NC(=O)[C@H](CCC(=O)O)NC(=O)[C@H](CCC(=O)O)NC(=O)[C@H](C)NC(=O)[C@H](CCCNC(=N)N)NC(=O)[C@H](C)NC(=O)C(C)(C)NC(=O)[C@H](CC(=O)O)NC(=O)[C@H](CC(C)C)NC(=O)[C@H](Cc1ccc(O)cc1)NC(=O)[C@H](CCCCN)NC(=O)[C@H](CO)NC(=O)[C@H](Cc1ccc(O)cc1)NC(=O)[C@H](CC(=O)O)NC(=O)[C@H](CO)NC(=O)[C@@H](NC(=O)[C@H](Cc1ccccc1)NC(=O)[C@@H](NC(=O)CNC(=O)[C@H](CCC(N)=O)NC(=O)[C@H](CO)NC(=O)[C@@H](N)Cc1c[nH]cn1)[C@@H](C)O)[C@@H](C)O)C(C)C)C(=O)N[C@@H](CCC(=O)O)C(=O)N[C@@H](CCC(=O)O)C(=O)N[C@H](C(=O)O)[C@@H](C)O` [Compound 36] (H-HSQGTFTSDYSKYLD[Aib]ARAEEFVKWLEET-OH), in “physchem”, the solubility is not below 1000 µg/mL. The EC50 on human Glucagon-R was found to be 0.01 nM.

Turning to “H-HSQGTFTSDYSKYLDKRRAEDFVSWLEST-OH [Compound 18]”, the solubility in the data set “physchem” is not below 1000 µg/mL. For the same molecule, the 50% effective concentration (EC50) at human Glucagon-R was 0.026 nM.

Consider “H-HSQGTFTSDYSKYLDSARAEEFVKWLEST-OH [Compound 9]”, for which the solubility in the data set “physchem” was not below 1000 µg/mL. Further, the EC50 at human Glucagon-R was determined as 0.03 nM.
